# In US9409884B2 (Rigel Pharmaceuticals, Inc., priority 2012, dated 2016):
# Target: AMPK
# Assay: AMPK activation, enzyme-linked immunosorbent assay
# Format: biochemical
# Details: Table 8, compounds of Table 1
# In short: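 Read-out: ELISA, used to detect compound-driven activation of AMPK.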
row,EC50,Structure (SMILES)
1,< 100 nM,"O=C(N[C@H]1CCN(Cc2ccncc2)C1)c1ccc(OC2CCN(c3ccc(C(F)(F)F)cc3)CC2)cn1 [Compound 1-30, (S)-N-(1-(pyridin-4-ylmethyl)pyrrolidin-3-yl)-5-(1-(4-(trifluoromethyl)phenyl)piperidin-4-yloxy)picolinamide]"
2,1000 to 5000 nM,"FC(F)(F)c1ccc(N2CCC(Oc3ccc4c(c3)CCC4NC3CCNCC3)CC2)cc1 (stereo not drawn) [Compound 1-157, N-(5-(1-(4-(trifluoromethyl)phenyl)piperidin-4-yloxy)-2,3-dihydro-1H-inden-1-yl)piperidin-4-amine]"
3,< 100 nM,"N#Cc1ccc(CN2CCC(NC(=O)c3cc4cc(OC5CCN(C(=O)c6ccc(-n7cccn7)cc6)CC5)ccc4o3)CC2)cc1 [Compound 1-163, 5-(1-(4-(1H-pyrazol-1-yl)benzoyl)piperidin-4-yloxy)-N-(1-(4-cyanobenzyl)piperidin-4-yl)benzofuran-2-carboxamide]"
4,100 to 500 nM,"CN(C)c1ccc(CN2CCC(NC(=O)c3ccc(OC4CCN(c5ccc(C(F)(F)F)cc5)CC4)cn3)CC2)cc1 [Compound 1-39, N-(1-(4-(dimethylamino)benzyl)piperidin-4-yl)-5-(1-(4-(trifluoromethyl)phenyl)piperidin-4-yloxy)picolinamide]"
5,100 to 500 nM,"Fc1ccc(CN2CCC(NC3CCc4cc(OC5CCN(c6ccc(C(F)(F)F)cc6)CC5)ccc43)CC2)cc1 (stereo not drawn) [Compound 1-159, 1-(4-fluorobenzyl)-N-(5-(1-(4-(trifluoromethyl)phenyl)piperidin-4-yloxy)-2,3-dihydro-1H-inden-1-yl)piperidin-4-amine]"
6,100 to 500 nM,"O=C(NC1CCN(Cc2ccncc2)CC1)c1cc2cc(OC3CCN(Cc4ccc(Cl)cc4)CC3)ccc2o1 [Compound 1-77, 5-(1-(4-chlorobenzyl)piperidin-4-yloxy)-N-(1-(pyridin-4-ylmethyl)piperidin-4-yl)benzofuran-2-carboxamide]"
7,100 to 500 nM,"CN(C(=O)c1cc2cc(OC3CCN(c4ccc(C(F)(F)F)cc4)CC3)ccc2o1)C1CCN(C(=O)c2ccncc2)CC1 [Compound 1-118, N-(1-isonicotinoylpiperidin-4-yl)-N-methyl-5-(1-(4-(trifluoromethyl)phenyl)piperidin-4-yloxy)benzofuran-2-carboxamide]"
8,< 100 nM,"O=C(NC1CCN(C(=O)c2ccncc2)CC1)c1cc2ccc(OC3CCN(c4ccc(C(F)(F)F)cc4)CC3)cc2o1 [Compound 1-112, N-(1-isonicotinoylpiperidin-4-yl)-6-(1-(4-(trifluoromethyl)phenyl)piperidin-4-yloxy)benzofuran-2-carboxamide]"
9,< 100 nM,"CS(=O)(=O)c1ccc(CN2CCC(Oc3ccc4oc(C(=O)NC5CCN(Cc6ccc(C#N)cc6)CC5)cc4c3)CC2)cc1 [Compound 1-175, N-(1-(4-cyanobenzyl)piperidin-4-yl)-5-(1-(4-(methylsulfonyl)benzyl)piperidin-4-yloxy)benzofuran-2-carboxamide]"
10,< 100 nM,"O=C(NC1CCN(Cc2ccncc2)CC1)c1sc2cc(OC3CCN(c4ccc(C(F)(F)F)cc4)CC3)ccc2c1Cl [Compound 1-151, 3-chloro-N-(1-(pyridin-4-ylmethyl)piperidin-4-yl)-6-(1-(4-(trifluoromethyl)phenyl)piperidin-4-yloxy)benzo[b] thiophene-2-carboxamide]"

# Same assay, conditions: Table 10, compounds of Table 3
row,EC50,Structure (SMILES)
1,1000 to 10000 nM,"N#Cc1ccc(CN2CCc3ccc(C(=O)NC4CCN(Cc5ccc(C(F)(F)F)cc5)CC4)cc3C2)cc1 [Compound 3-39, 2-(4-cyanobenzyl)-N-(1-(4-(trifluoromethyl)benzyl)piperidin-4-yl)-1,2,3,4-tetrahydroisoquinoline-7-carboxamide]"

# Same assay, conditions: Table 11, compounds of Table 4
row,EC50,Structure (SMILES)
1,1000 to 5000 nM,"O=C(NC1CCN(Cc2ccc(Cl)cc2)C1)c1ccc(C(=O)N2CCN(c3ccc(Cl)cc3)CC2)cn1 (stereo not drawn) [Compound 4-7, N-(1-(4-chlorobenzyl)pyrrolidin-3-yl)-5-(4-(4-chlorophenyl)piperazine-1-carbonyl)picolinamide]"

# Same assay, conditions: Table 12, compounds of Table 5
row,EC50,Structure (SMILES)
1,1000 to 10000 nM,"O=C(NC1CCN(Cc2ccccc2)CC1)c1ccc(OC2CCN(Cc3ccccn3)CC2)c(F)c1 [Compound 5-39, N-(1-benzylpiperidin-4-yl)-3-fluoro-4-(1-(pyridin-2-ylmethyl)piperidin-4-yloxy)benzamide]"
2,1000 to 10000 nM,"COc1ccc(CN2CCC(Oc3ccc(C(=O)NCCCNC(=O)OC(C)(C)C)cc3Cl)CC2)cc1 [Compound 5-97, tert-butyl 3-(3-chloro-4-(1-(4-methoxybenzyl)piperidin-4-yloxy)benzamido) propylcarbamate]"
3,< 1000 nM,"O=C(NC1CCN(Cc2ccccc2)CC1)c1ccc(OC2CCN(Cc3ccc(F)cc3)CC2)c(Cl)c1 [Compound 5-19, N-(1-benzylpiperidin-4-yl)-3-chloro-4-(1-(4-fluorobenzyl)piperidin-4-yloxy)benzamide]"
4,1000 to 10000 nM,"CC(C)(C)OC(=O)N1CCN(C(=O)c2ccc(OC3CCN(Cc4ccccc4)CC3)cc2)CC1 [Compound 5-99, tert-butyl 4-(4-(1-benzylpiperidin-4-yloxy)benzoyl)piperazine-1-carboxylate]"
5,< 1000 nM,"COc1ccc(CN2CCC(NC(=O)c3cccc(OC4CCN(Cc5ccc(OC)cc5)CC4)c3)CC2)cc1 [Compound 5-107, N-(1-(4-methoxybenzyl)piperidin-4-yl)-3-(1-(4-methoxybenzyl)piperidin-4-yloxy)benzamide]"
6,< 1000 nM,"COc1ccc(CN2CCC(NC(=O)c3cccc(OC4CCN(Cc5ccc(C(F)(F)F)cc5)CC4)c3)CC2)cc1 [Compound 5-108, N-(1-(4-methoxybenzyl)piperidin-4-yl)-3-(1-(4-(trifluoromethyl)benzyl)piperidin-4-yloxy)benzamide]"
7,< 1000 nM,"N#Cc1ccc(CN2CCC(Oc3ccc(C(=O)NC4CCN(Cc5ccc(Cl)cc5)CC4)cc3F)CC2)cc1 [Compound 5-70, N-(1-(4-chlorobenzyl)piperidin-4-yl)-4-(1-(4-cyanobenzyl)piperidin-4-yloxy)-3-fluorobenzamide]"
8,< 1000 nM,"O=C(NC1CCN(Cc2ccc(Cl)cc2)CC1)c1ccc(OC2CCN(Cc3ccc(Cl)c(Cl)c3)CC2)c(F)c1 [Compound 5-80, N-(1-(4-chlorobenzyl)piperidin-4-yl)-4-(1-(3,4-dichlorobenzyl)piperidin-4-yloxy)-3-fluorobenzamide]"

# Same assay, conditions: Table 13, compounds of Table 6
row,EC50,Structure (SMILES)
1,< 100 nM,"COc1ccc(CN2CCC(NC(=O)c3cc4cc(C(=O)N5CCN(Cc6ccc(S(=O)(=O)C7CC7)cc6)CC5)ccc4o3)CC2)cc1F [Compound 6-131, 5-(4-(4-(cyclopropylsulfonyl)benzyl)piperazine-1-carbonyl)-N-(1-(3-fluoro-4-methoxybenzyl)piperidin-4-yl)benzofuran-2-carboxamide]"
2,< 100 nM,"CS(=O)(=O)c1ccc(CN2CCN(C(=O)c3ccc4oc(C(=O)NC5CCN(Cc6ccc(C(F)(F)F)cc6)CC5)cc4c3)CC2)cc1 [Compound 6-144, 5-(4-(4-(methylsulfonyl)benzyl)piperazine-1-carbonyl)-N-(1-(4-(trifluoromethyl)benzyl)piperidin-4-yl)benzofuran-2-carboxamide]"
3,< 100 nM,"COc1ccc(CN2CCC(NC(=O)c3cc4cc(C(=O)N5CCN(c6cc(C(F)(F)F)cc(C(F)(F)F)c6)CC5)ccc4o3)CC2)cc1 [Compound 6-120, 5-(4-(3,5-bis(trifluoromethyl)phenyl)piperazine-1-carbonyl)-N-(1-(4-methoxybenzyl)piperidin-4-yl)benzofuran-2-carboxamide]"
4,< 100 nM,"Cc1cc2oc(C(=O)NC3CCN(Cc4ccc(C#N)cc4)CC3)cc2cc1NC(=O)C1CCN(c2ccc(C#N)cc2)CC1 [Compound 6-126, N-(2-(1-(4-cyanobenzyl)piperidin-4-ylcarbamoyl)-6-methylbenzofuran-5-yl)-1-(4-cyanophenyl)piperidine-4-carboxamide]"
5,< 100 nM,"CCNS(=O)(=O)c1ccc(CN2CCN(C(=O)c3ccc4oc(C(=O)NC5CCN(Cc6ccc(OC)c(F)c6)CC5)cc4c3)CC2)cc1 [Compound 6-161, 5-(4-(4-(N-ethylsulfamoyl)benzyl)piperazine-1-carbonyl)-N-(1-(3-fluoro-4-methoxybenzyl)piperidin-4-yl)benzofuran-2-carboxamide]"

# Same assay, conditions: Table 14, compounds of Table 7
row,EC50,Structure (SMILES)
1,10000 to 20000 nM,"COc1ccc(C(=O)C2CCN(C(=O)c3ncc(C(=O)NC4CCN(Cc5ccc(C#N)cc5)CC4)cc3CCCNC(=O)CCOCCOCCOCCOCCNC(=O)CCCC[C@@H]3SC[C@@H]4NC(=O)N[C@@H]43)CC2)cc1 [Compound 7-19, N-(1-(4-cyanobenzyl)piperidin-4-yl)-5-(5,21-dioxo-25-((3aS,4S,6aR)-2-oxohexahydro-1H-thieno[3,4-d]imidazol-4-yl)-8,11,14,17-tetraoxa-4,20-diazapentacosyl)-6-(4-(4-methoxybenzoyl)piperidine-1-carbonyl)nicotinamide]"
2,1000 to 10000 nM,"O=C(NC1CCN(Cc2ccc(OC(F)(F)F)cc2)C[C@H]1F)c1ccc(C(=O)N2CCC(Oc3ccc(S(=O)(=O)C4CC4)cc3)CC2)nc1 (stereo partly drawn) [Compound 7-48, 6-(4-(4-(cyclopropylsulfonyl)phenoxy)piperidine-1-carbonyl)-N-((3,4- trans)-3-fluoro-1-(4-(trifluoromethoxy)benzyl)piperidin-4-yl)nicotinamide]"
3,1000 to 10000 nM,"CCNS(=O)(=O)c1ccc(CN2CCN(C(=O)c3ccc(C(=O)Nc4ccc(Oc5ccc(C(C)=O)cc5)nc4)cn3)CC2)cc1 [Compound 7-92, N-(6-(4-acetylphenoxy)pyridin-3-yl)-6-(4-(4-(N-ethylsulfamoyl)benzyl)piperazine-1-carbonyl) nicotinamide]"
4,1000 to 10000 nM,"CC(=O)c1ccc(Oc2ccc(NC(=O)c3ccc(C(=O)N4CCC(Oc5ccc6c(c5)ncn6C)CC4)nc3)cn2)cc1 [Compound 7-46, N-(6-(4-acetylphenoxy)pyridin-3-yl)-6-(4-(1-methyl-1H-benzo[d]imidazol-5-yloxy)piperidine-1-carbonyl)nicotinamide]"
5,< 1000 nM,"COc1ccc(C(=O)C2CCN(C(=O)c3ccc(C(=O)NC4CCN(Cc5ccc(F)c(C(F)(F)F)c5)C[C@H]4F)cn3)CC2)cc1 (stereo partly drawn) [Compound 7-45, N-((3,4-trans)-3-fluoro-1-(4-fluoro-3-(trifluoromethyl)benzyl)piperidin-4-yl)-6-(4-(4-methoxybenzoyl)piperidine-1-carbonyl)nicotinamide]"
